Assay results as given in patent US12606561B2, “Substituted pyrazolo[1,5-a][1,3,5]triazines as CDK inhibitors” (QURIENT CO., LTD., priority 2018, dated 2026).

How the values were obtained:
OVCAR-3 = OVCAR-3 viability assay (CellTiter-Glo, 72 hours); assay type: cell-based; details: Homo sapiens; OVCAR-3 cells
Outline: (§1)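 After a 24 h attachment period, cells received a 0.0015–10 uM compound titration and were incubated 72 h at 37° C, 5% CO2. Viability came from CellTiter-Glo luminescence measured in duplicate.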

CDK1/Cyclin B = target: T1, CDK1/Cyclin B (Homo sapiens, UniProt P06493); assay: Enzymatic assay for CDK1 (LANCE Ultra kinase assay, FRET based); assay type: biochemical; details: ATP at Km; read-out: CDK1 enzymatic activity IC50
T1 construct: purchased Invitrogen PR4768C
Outline: (§2)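 With ATP set at its Km, compounds were tested against purified CDK/cyclin complexes phosphorylating a ULight-labeled peptide. Signal came from FRET between the peptide and a Europium-labeled anti-phospho-antibody.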

A2780 = A2780 viability assay (CellTiter-Glo, 72 hours); assay type: cell-based; details: Homo sapiens; A2780 cells
Outline: as §1

CDK5/p25 = target: T2, CDK5/p25 (Homo sapiens, UniProt Q00535); assay: Enzymatic assay for CDK5 (LANCE Ultra kinase assay, FRET based); assay type: biochemical; details: ATP at Km
T2 construct: purchased Invitrogen PR8543B
Outline: (§3)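 Inhibition was measured at ATP Km with 68 nM ULight-MBP peptide and CDK2/Cyclin A ([…]) or CDK5/p25 ([…]), using 8-dose 4-fold compound dilutions from DMSO. Kinase reaction ran 60 min at 23° C, then Eu anti-phospho-MBP plus EDTA were added for another 60 min before the fluorescence read.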

CDK2/Cyclin A = target: T3, CDK2/Cyclin A (Homo sapiens, UniProt P24941); assay: Enzymatic assay for CDK2 (LANCE Ultra kinase assay, FRET based); assay type: biochemical; details: ATP at Km
T3 construct: purchased Invitrogen PV6290
Outline: as §3

MV4-11 = assay: Cellular MV4-11 viability assay (CellTiter-Glo, 72 hours); assay type: cell-based; details: Homo sapiens; MV4-11 cells
Outline: as §1

CDK7/Cyclin H/MNAT1 = target: T4, CDK7/Cyclin H/MNAT1 (Homo sapiens, UniProt P50613); assay: Enzymatic assay for CDK7 (LANCE Ultra kinase assay, FRET based); assay type: biochemical; details: for IC50: ATP at Km
T4 construct: purchased Invitrogen PR6749B
Outline: as §2

H460 = assay: Cellular H460 viability assay (CellTiter-Glo, 72 hours); assay type: cell-based; details: Homo sapiens, NCI-H460; H460 cells
Protocol: All cell lines were routinely tested for mycoplasma.
To effect of the CDK7 inhibitor to inhibit the growth of target cancer cells, viability assay were conducted a 72 hour time period. Briefly, the candidate cell line was plated in 96 well plate at the following density of cells respectively. 1×10^4 cells/well for MV4-11, 5×10^3 for H460 and OVCAR-3, and 1×10^3 for A2780. […] DMSO solvent without compound served as a control and final DMSO concentration lest than 0.1%. After 72 hours of incubation at 37° C., 5% CO2 incubator, cells were analyzed for the viability using the CellTiter-Glo Luminescent Cell Viability Assay (Promega, Cat #G7570). All viability assays were performed in duplicate and Luminescence was read using an Envision (Perkin Elmer, USA). Data was analyzed using XLfit software.

T4 sequence (P50613 whole entry): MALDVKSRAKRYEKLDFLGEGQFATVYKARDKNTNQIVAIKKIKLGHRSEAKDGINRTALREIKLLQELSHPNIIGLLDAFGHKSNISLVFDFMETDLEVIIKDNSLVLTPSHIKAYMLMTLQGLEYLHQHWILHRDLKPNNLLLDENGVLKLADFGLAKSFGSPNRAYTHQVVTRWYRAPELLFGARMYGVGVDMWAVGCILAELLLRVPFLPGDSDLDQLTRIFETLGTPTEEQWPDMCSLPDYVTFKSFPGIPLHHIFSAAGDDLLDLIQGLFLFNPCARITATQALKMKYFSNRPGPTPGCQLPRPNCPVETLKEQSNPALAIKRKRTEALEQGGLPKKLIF
T4 sequence (P51946 whole entry partner): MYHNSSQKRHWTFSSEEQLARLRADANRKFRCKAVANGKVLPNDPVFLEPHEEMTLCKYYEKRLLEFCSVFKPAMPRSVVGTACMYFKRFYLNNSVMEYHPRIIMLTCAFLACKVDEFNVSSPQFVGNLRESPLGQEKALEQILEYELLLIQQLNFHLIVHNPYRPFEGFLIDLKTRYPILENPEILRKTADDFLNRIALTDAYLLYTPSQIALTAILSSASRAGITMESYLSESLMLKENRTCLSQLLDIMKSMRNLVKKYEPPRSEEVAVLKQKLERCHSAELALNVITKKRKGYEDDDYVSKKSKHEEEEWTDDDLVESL
T4 sequence (P51948 whole entry partner): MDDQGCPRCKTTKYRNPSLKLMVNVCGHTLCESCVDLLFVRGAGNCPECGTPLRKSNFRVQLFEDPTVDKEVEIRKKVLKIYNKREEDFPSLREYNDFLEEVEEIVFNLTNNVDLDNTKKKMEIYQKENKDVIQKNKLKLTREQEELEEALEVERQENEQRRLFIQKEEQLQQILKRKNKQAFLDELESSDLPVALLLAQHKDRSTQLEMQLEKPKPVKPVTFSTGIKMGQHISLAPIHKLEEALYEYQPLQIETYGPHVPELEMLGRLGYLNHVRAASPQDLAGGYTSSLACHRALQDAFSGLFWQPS
T1 sequence (P06493 whole entry): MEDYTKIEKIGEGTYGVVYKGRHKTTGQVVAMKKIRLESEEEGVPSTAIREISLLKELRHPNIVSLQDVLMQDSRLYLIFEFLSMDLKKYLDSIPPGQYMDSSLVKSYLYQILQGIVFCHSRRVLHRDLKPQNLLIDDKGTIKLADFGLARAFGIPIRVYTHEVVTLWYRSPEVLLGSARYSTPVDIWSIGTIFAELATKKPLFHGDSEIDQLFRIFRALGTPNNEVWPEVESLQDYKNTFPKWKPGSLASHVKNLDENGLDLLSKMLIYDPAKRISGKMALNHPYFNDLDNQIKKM
T1 sequence (P14635 whole entry partner): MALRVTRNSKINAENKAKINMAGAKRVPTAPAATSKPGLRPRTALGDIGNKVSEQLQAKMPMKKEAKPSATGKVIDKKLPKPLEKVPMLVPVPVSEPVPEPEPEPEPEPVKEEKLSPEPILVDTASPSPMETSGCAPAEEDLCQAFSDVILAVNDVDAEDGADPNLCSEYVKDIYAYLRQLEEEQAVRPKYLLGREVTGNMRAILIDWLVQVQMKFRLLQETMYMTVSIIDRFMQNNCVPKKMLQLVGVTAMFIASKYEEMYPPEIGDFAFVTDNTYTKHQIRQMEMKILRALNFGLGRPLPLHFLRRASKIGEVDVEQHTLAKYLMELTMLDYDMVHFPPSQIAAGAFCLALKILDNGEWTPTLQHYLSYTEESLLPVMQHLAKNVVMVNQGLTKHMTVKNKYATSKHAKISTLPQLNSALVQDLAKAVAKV
T2 sequence (Q00535 whole entry): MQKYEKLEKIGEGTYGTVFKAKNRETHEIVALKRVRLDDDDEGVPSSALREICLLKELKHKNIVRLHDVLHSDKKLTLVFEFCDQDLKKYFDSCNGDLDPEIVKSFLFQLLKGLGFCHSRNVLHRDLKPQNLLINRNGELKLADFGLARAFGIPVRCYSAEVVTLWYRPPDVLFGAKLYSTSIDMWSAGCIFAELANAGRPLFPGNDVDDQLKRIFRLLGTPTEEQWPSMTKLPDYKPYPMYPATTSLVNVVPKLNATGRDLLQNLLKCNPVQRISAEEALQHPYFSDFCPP
T2 sequence (Q15078 99-307 partner limits assumed): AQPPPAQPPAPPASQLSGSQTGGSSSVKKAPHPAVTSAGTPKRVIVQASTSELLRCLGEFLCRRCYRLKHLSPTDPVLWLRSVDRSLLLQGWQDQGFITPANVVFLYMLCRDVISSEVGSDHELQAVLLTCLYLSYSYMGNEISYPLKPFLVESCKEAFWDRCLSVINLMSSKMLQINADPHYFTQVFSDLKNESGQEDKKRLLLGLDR

SMILES	IC50 (OVCAR-3) [nM]	IC50 (CDK1/Cyclin B) [nM]	IC50 (A2780) [nM]	IC50 (CDK5/p25) [nM]	IC50 (CDK2/Cyclin A) [nM]	IC50 (MV4-11) [nM]	IC50 (CDK7/Cyclin H/MNAT1) [nM]	CDK1/CDK7: Selectivity of CDK7 inhibition over CDK1 inhibition (CDK7/Cyclin H/MNAT1)	CDK2/CDK7: Selectivity of CDK7 inhibition over CDK2 inhibition (CDK7/Cyclin H/MNAT1)	CDK5/CDK7: Selectivity of CDK7 inhibition over CDK5 inhibition (CDK7/Cyclin H/MNAT1)	IC50 (H460) [nM]
CC(C)c1cnn2c(NCc3ccccc3-c3cc4c(NC(=O)/C=C/CN(C)C)cccc4[nH]3)nc(N3CCC(N)CC3)nc12 [Compound 3]	< 1000	100 to 1000	< 1000	< 100	100 to 1000	< 1000	< 100	C (C indicates [fold] ≤ 50)	C (C indicates [fold] ≤ 50)	C (C indicates [fold] ≤ 50)	< 1000
C=CC(=O)Nc1cccc(Oc2cccc(CNc3nc(N4CCC(N)CC4)nc4c(C(C)C)cnn34)c2)c1 [Compound 5]		> 1000		100 to 1000	100 to 1000		< 100	B (B indicates 50 < [fold] ≤ 500)	B (B indicates 50 < [fold] ≤ 500)	C (C indicates [fold] ≤ 50)	< 1000
CC(C)c1cnn2c(NCc3ccccc3OC3CCN(C(=O)/C=C/CN(C)C)CC3)nc(N3CCC(N)CC3)nc12 [Compound 6]		> 1000		100 to 1000	> 1000		< 100	A (A indicates [fold] > 500)	A (A indicates [fold] > 500)	C (C indicates [fold] ≤ 50)	< 1000
C=CC(=O)Nc1cccc(Oc2ccccc2CNc2nc(N3CCC(N)CC3)nc3c(C(C)C)cnn23)c1 [Compound 7]		> 1000		> 1000	> 1000		< 100	A (A indicates [fold] > 500)	A (A indicates [fold] > 500)	B (B indicates 50 < [fold] ≤ 500)	< 1000
CC(C)c1cnn2c(NCc3ccccc3NC(=O)c3cccc(NC(=O)/C=C/CN(C)C)c3)nc(N3CCC(N)CC3)nc12 [Compound 8]		> 1000		100 to 1000	> 1000		< 100	A (A indicates [fold] > 500)	B (B indicates 50 < [fold] ≤ 500)	B (B indicates 50 < [fold] ≤ 500)	< 1000
CC(C)c1cnn2c(NCc3ccccc3Oc3ccc(NC(=O)/C=C/CN(C)C)cc3)nc(N3CCC(N)CC3)nc12 [Compound 10]		> 1000		100 to 1000	100 to 1000		< 100	B (B indicates 50 < [fold] ≤ 500)	B (B indicates 50 < [fold] ≤ 500)	C (C indicates [fold] ≤ 50)	< 1000
CC(C)c1cnn2c(NCc3cccc4ccc(NC(=O)/C=C/CN(C)C)nc34)nc(N3CCC(N)CC3)nc12 [Compound 12]		> 1000		100 to 1000	> 1000		< 100	A (A indicates [fold] > 500)	B (B indicates 50 < [fold] ≤ 500)	C (C indicates [fold] ≤ 50)	< 1000

The next lines start with the values.

IC50 (OVCAR-3) [nM]	IC50 (CDK1/Cyclin B) [nM]	IC50 (A2780) [nM]	IC50 (CDK5/p25) [nM]	IC50 (CDK2/Cyclin A) [nM]	IC50 (MV4-11) [nM]	IC50 (CDK7/Cyclin H/MNAT1) [nM]	CDK1/CDK7: Selectivity of CDK7 inhibition over CDK1 inhibition (CDK7/Cyclin H/MNAT1)	CDK2/CDK7: Selectivity of CDK7 inhibition over CDK2 inhibition (CDK7/Cyclin H/MNAT1)	CDK5/CDK7: Selectivity of CDK7 inhibition over CDK5 inhibition (CDK7/Cyclin H/MNAT1)	IC50 (H460) [nM]	SMILES
	> 1000		100 to 1000	> 1000		< 100	A (A indicates [fold] > 500)	B (B indicates 50 < [fold] ≤ 500)	B (B indicates 50 < [fold] ≤ 500)	< 1000	C=CC(=O)Nc1cccc(Oc2cccc(CNc3nc(N4CCC(N(C)C)CC4)nc4c(C(C)C)cnn34)c2)c1 [Compound 14]
	> 1000		100 to 1000	100 to 1000		< 100	A (A indicates [fold] > 500)	B (B indicates 50 < [fold] ≤ 500)	B (B indicates 50 < [fold] ≤ 500)	< 1000	CC(C)c1cnn2c(NCc3cccc(Oc4ccc(Cl)c(NC(=O)/C=C/CN(C)C)c4)c3)nc(N3CCC(N)CC3)nc12 [Compound 15]
	> 1000		100 to 1000	100 to 1000		< 100	B (B indicates 50 < [fold] ≤ 500)	B (B indicates 50 < [fold] ≤ 500)	C (C indicates [fold] ≤ 50)	< 1000	CC(C)c1cnn2c(NCc3ccccc3-n3cc4cccc(NC(=O)/C=C/CN(C)C)c4n3)nc(N3CCC(N)CC3)nc12 [Compound 16]
	100 to 1000		< 100	< 100		< 100	C (C indicates [fold] ≤ 50)	C (C indicates [fold] ≤ 50)	C (C indicates [fold] ≤ 50)	1000 to 10000	CC(C)c1cnn2c(NCc3ccccc3-c3cc4cc(NC(=O)/C=C/CN(C)C)ccc4[nH]3)nc(N3CCC(N)CC3)nc12 [Compound 19]
< 1000	> 1000	< 1000	100 to 1000	> 1000	< 1000	< 100	B (B indicates 50 < [fold] ≤ 500)	A (A indicates [fold] > 500)	B (B indicates 50 < [fold] ≤ 500)	< 1000	CC(C)c1cnn2c(NCc3ccccc3-c3ccc4cccc(NC(=O)/C=C/CN(C)C)c4n3)nc(N3CCC(N)CC3)nc12 [Compound 20]
	> 1000		100 to 1000	> 1000		< 100	B (B indicates 50 < [fold] ≤ 500)	C (C indicates [fold] ≤ 50)	C (C indicates [fold] ≤ 50)	1000 to 10000	CC(C)c1cnn2c(NCc3cccc(-c4cc5cc(NC(=O)/C=C/CN(C)C)ccc5[nH]4)c3)nc(N3CCC(N)CC3)nc12 [Compound 23]
	100 to 1000		100 to 1000	100 to 1000		< 100	B (B indicates 50 < [fold] ≤ 500)	C (C indicates [fold] ≤ 50)	C (C indicates [fold] ≤ 50)	1000 to 10000	CC(C)c1cnn2c(NCc3ccccc3-n3cc4cc(NC(=O)/C=C/CN(C)C)ccc4n3)nc(N3CCC(N)CC3)nc12 [Compound 24]
< 1000	100 to 1000	< 1000	< 100	100 to 1000	< 1000	< 100	B (B indicates 50 < [fold] ≤ 500)	C (C indicates [fold] ≤ 50)	C (C indicates [fold] ≤ 50)	< 1000	CC(C)c1cnn2c(NCc3ccccc3-c3cc4cccc(NC(=O)/C=C/CN(C)C)c4[nH]3)nc(N3CCC(N)CC3)nc12 [Compound 25]
